The record followed here is patent US20050277600A1, “Compositions and methods of use of dimer digallates” (Mars, Incroporated, priority 2004, published 2005).

SMILES strings stand for the structures.

The test system of series [1] is human umbilical vein endothelial cell (HUVEC) NO production. The experiment in a line: HUVEC NO production (NOx in cell culture medium, chemiluminescence). It is filed as cell-based. The settings on record: for HUVEC Cells NOx, 24 hr / HUVEC Cells NOx, 5 d / HUVEC Cells NOx, 2 hr: Table 2 summary. The method, then:
Several compounds were investigated for their effect on nitric oxide (NO) production and vasorelaxation using serum-free human umbilical vein endothelial cell (HUVEC) culture system in vitro and rabbit aortic ring model ex vivo, respectively. NO production by endothelial cells and relaxation of pre-constricted aortic rings are two main markers for evaluating vascular effects of test compounds.
HUVECs obtained from a single donor were cultured in serum free, low protein (0.5 g/l), antibiotic-free cell culture medium supplemented with essential growth factors, nutrients and minerals. […] The cell culture medium was substituted with apo-transferrin, superoxide dismutase, and catalase to exclude secondary effects of test compounds involving their auto-oxidation mediated hydrogen peroxide formation.
NO production was evaluated by measuring the total amount of all major nitric oxide end products (NOx, including nitrate, nitrite, nitrosothiols) present in the cell culture medium. […] The amount of NO released from the culture medium was subsequently evaluated by measuring the chemiluminescence emitted during the stoichiometrical reaction between ozone and NO using a NO Analyzer (Sievers Instruments, Inc. Boulder, Colo.).
The data presented herein were obtained from three experiments and were expressed as the concentration of NO present (in μmol/l) (as NOx) in the cell culture medium+/−standard deviation (SD). The data were corrected for the NOx intrinsically present in the fully supplemented cell culture medium and normalized with respect to the volume of media from which the sample was drawn. Data were analyzed using Student's t-test with a 95% level of confidence. P values equal to or less than 0.05 were defined as statistically significant.
For the acute effect test, HUVECs were incubated with the test compounds for 2 hours at concentrations of 100 nM, 1 μM, and 10 μM at 37° C. and 5% CO2. […] (FIG. 1)
For the chronic effect test, HUVECs were incubated with 5 subsequent doses of test compounds, each for 24 hours. After each 24 hour treatment, culture medium was replaced.
For the acute effect test, HUVECs were incubated with a single dose of the test compounds for 24 hours at concentrations of 100 nM, 1 μM, and 10 μM at 37° C. and 5% CO2.

In series [2] the test system is rabbit aortic rings. As to the kind of experiment: Relaxation of norepinephrine pre-constricted rabbit aortic rings ex vivo. The procedure:
Several compounds were investigated for their effect on nitric oxide (NO) production and vasorelaxation using serum-free human umbilical vein endothelial cell (HUVEC) culture system in vitro and rabbit aortic ring model ex vivo, respectively. NO production by endothelial cells and relaxation of pre-constricted aortic rings are two main markers for evaluating vascular effects of test compounds. Effect of different procyanidins on endothelium-dependent relaxation was tested in an ex vivo experiment performed as previously described by Karim et al., J. Nutrl Suppl., 130 (8S): […]-[…] (2000), the relevant portions of which are hereby incorporated herein by reference. The advantage of using this method is that it assesses functional vascular end points. […] In summary, rabbit aortic rings were obtained from male New Zealand White rabbits. Following isolation, the rings were mounted in oxygenated Kreb's buffer, and pre-constricted with norepinephrine (NE) (10^-6 M). […] A positive control acetylcholine (10^-9 to 10^-4 M) and a negative control L-NAME were included in the experiment. Use of L-NAME, which is a NO synthase (NOS) inhibitor, allows for differentiating between endothelium dependent and endothelium independent relaxation events. […] The relaxation response was measured as a function of the decrease in the tension (g) exerted by the aortic rings over time […]. Data obtained were expressed as a percent relaxation of the norepinephrine (NE) constricted rings. The same statistical approach as described above was used. Dose response curves were obtained by plotting the average percent relaxation (+/-SE) against the concentrations used.

Series [3] deals with HUVEC. The experiment in a line: HUVEC-mediated MTT reduction (toxic effects). The following applies: for cell-mediated MTT reduction / MTT reduction: Experiment 2, chronic, 5 x 24 hours; for cell-mediated MTT reduction: 10 μM (20 μM for the Epicatechin gallates); for cell-mediated reduction of MTT: 1 μM; for MTT reduction: 1 μM or 2 μM for EGC. On the technique in general: Tetrazolium assays rely on reduction of a dye to a coloured formazan, in cell work by metabolically active cells.
Method: Cell counts and total protein were used to assess intra-assay variation. Potential toxic effects of tested compounds were also monitored (MTT reduction was measured).

In series [4] the test system is human umbilical vein endothelial cell (HUVEC) NO production. As to the kind of experiment: HUVEC NO production (NOx in cell culture medium, chemiluminescence). In kind it is cell-based. The settings on record: Experiment 1, 24 h after single dose, 1 mM (so in the source).
Setting [5] is: Experiment 2, single dose, 24 hours, 1 μM.
Setting [6] is: Experiment 2, single dose, 24 hours.
Where [7] appears, read: Experiment 2, single dose, 24 hours, 10 μM.
Setting [8] is: Experiment 1, 24 h after single dose, 10 μM.
The mark [9] stands for this setting: Experiment 1, acute, 2 hours incubation, 10 μM.
[10] abbreviates: Experiment 1, chronic, 5 subsequent 24 hour doses.

As to `O=C(O[C@H]1[C@@H](c2c(O)cc(O)c3c2O[C@H](c2ccc(O)c(O)c2)[C@H](OC(=O)c2cc(O)c(O)c(O)c2)C3)c2c(O)cc(O)cc2O[C@@H]1c1ccc(O)c(O)c1)c1cc(O)c(O)c(O)c1` [C-(4β→8)-EC digallate, (+)-Catechin-(4β,8)-(−)-Epicatechin Digallate], the NO production result in series [1] (setting [5]) was “statistically significant increases in NO production”. In addition, the “HUVEC Cells NOx, 24 hr” value in series [1] (1 µM) is recorded as 1 uM, sign. Incr. NOx; 10 uM,; in series [1] (10 µM) it was “no sign. effect on NOx, Cell”. Besides, the “HUVEC Cells NOx, 5 d” value in series [1] was “No significant NOx increase;”. Also, in series [2] (Experiment 2, 10^−4 M), the “relaxation response, percent relaxation of NE constricted rings” value (“relaxation response, percent relaxation” for short) is listed as 72.4+/−17.4%. The relaxation response in series [2] (Experiment 2, 10^−5 M) was determined as 33.1%. For the same compound, in series [2] (Experiment 3, 10 μM and 100 μM), the “Max Relaxation” value is given as 72%. For the same compound, the “cell-mediated MTT reduction” value in series [3] was “significant decline of cell-mediated MTT reduction”. Besides, the “cell-mediated reduction of MTT” value in series [3] (setting [6]) was “no effect on cell-mediated reduction of MTT”. In series [3] (setting [7]), the “loss of HUVEC MTT reduction as compared to controls” value worked out at 47%. For the same compound, the “HUVEC Cells cell toxicity, 24 hr” value in series [3] (Table 2 summary, 24 hr, 10 uM) is on record as “toxicity”.
Take `Oc1cc(O)c2c(c1)O[C@H](c1ccc(O)c(O)c1)[C@H](O)[C@H]2c1c(O)cc(O)c2c1O[C@H](c1ccc(O)c(O)c1)[C@@H](O)C2` [EC-(4β→8)-C, (−)-Epicatechin-(4β,8)-(+)-Catechin]: the values for the NO production entry in series [1] (setting [8]), in series [1] (setting [5]) and in series [4] were “increased NO production”, “statistically significant increases in NO production” and “increased NO production”, respectively. Besides, the “modulation of NO production” value in series [1] (setting [9]) was “statically significant ability to modulate NO production”; in series [1] (setting [7]) it was “statistically significant ability to modulate NO production”. For the same compound, the “HUVEC NO production” value in series [1] (Experiment 2, chronic, 5 subsequent 24 hour doses) is reported as “increase in NO production which was significantly lower as compared to single dose treatment”. Besides, the “HUVEC Cells NOx, 2 hr” value in series [1] was 10 uM, sign. NOx. The “HUVEC Cells NOx, 24 hr” value in series [1] was 1 uM and 10 uM, sign. Incr. in. In addition, in series [1], the “HUVEC Cells NOx, 5 d” value is on record as 10 uM, significant NOx. The “NO modulating effect after re-purification” value in series [1] (re-purified compound (first lot contaminated with A1 dimer)) is “no longer exhibited the NO modulating effect”. The “relaxation response, percent relaxation” value in series [2] (Experiment 1, 10^−4 M) is 58.36+/−11.35%; in series [2] (Experiment 1, 10^−5 M) it was 42.7+/−11.81%. For the same compound, the “cell-mediated reduction of MTT” value in series [3] (setting [6]) is “no effect on cell-mediated reduction of MTT”.
In the case of `O=C(O[C@@H]1[C@@H](c2c(O)cc(O)c3c2O[C@H](c2ccc(O)c(O)c2)[C@H](OC(=O)c2cc(O)c(O)c(O)c2)C3)c2c(O)cc(O)cc2O[C@@H]1c1ccc(O)c(O)c1)c1cc(O)c(O)c(O)c1` [EC-(4β→8)-EC digallate, (−)-Epicatechin-(4β,8)-(−)-Epicatechin Digallate], the NO production entry in series [1] (setting [8]) is “increased NO production”; in series [1] (setting [10]), “attenuation of NO production”; in series [1] (setting [5]), “statistically significant increases in NO production”; in series [4], “increased NO production”. For the same compound, the figures for the “modulation of NO production” value in series [1] (setting [9]) and in series [1] (setting [7]) were “statically significant ability to modulate NO production” and “statistically significant ability to modulate NO production”, respectively. In addition, the “HUVEC Cells NOx, 2 hr” value in series [1] was 10 uM, sign. NOx. Moreover, the “HUVEC Cells NOx, 24 hr” value in series [1] is 1 and 10 uM, sign. NOx inc. Further, the “HUVEC Cells NOx, 5 d” value in series [1] is given as “No significant NOx increase;”. The “relaxation response, percent relaxation” value is given as 73.55+/−7.08% in series [2] (Experiment 1, 10^−4 M) and 44.6+/−16.6% in series [2] (Experiment 1, 10^−5 M). The “Max Relaxation” value in series [2] (Experiment 3, 10 μM and 100 μM) is reported as 74%. Also, the “decline in MTT reduction” value in series [3] (setting [10]) was 55%. In series [3], the MTT reduction result was “decline in MTT reduction”. For the same compound, the “cell-mediated MTT reduction” value in series [3] is listed as “significant decline of cell-mediated MTT reduction”. Also, in series [3] (setting [6]), the “cell-mediated reduction of MTT” value is on record as “no effect on cell-mediated reduction of MTT”.
On to `O=C(O[C@H]1[C@H](c2c(O)cc(O)c3c2O[C@H](c2ccc(O)c(O)c2)[C@H](OC(=O)c2cc(O)c(O)c(O)c2)C3)c2c(O)cc(O)cc2O[C@@H]1c1ccc(O)c(O)c1)c1cc(O)c(O)c(O)c1` [C-(4α→8)-EC digallate, (+)-Catechin-(4α,8)-(−)-Epicatechin Digallate], for which, in series [1], the “HUVEC Cells NOx, 24 hr” value is recorded as “no effect” and the “HUVEC Cells NOx, 5 d” value is “No significant NOx increase;”. Besides, the “relaxation response, percent relaxation” value in series [2] (Experiment 2, 10^−4 M) was 40.7+/−9.2%. Besides, the “Max Relaxation” value in series [2] (Experiment 3, 100 μM) is 41%. The “Aortic Ring Effective Conc,” value in series [2] (Table 1 summary) was 100 µM. Besides, in series [3], the MTT reduction result is on record as “decline in MTT reduction” and the “cell-mediated MTT reduction” value is listed as “significant decline of cell-mediated MTT reduction”.
